16 substances from patent US20100003228A1, “T-CELL VACCINE” (priority 2006, published 2010) can be followed below.

Where no end group is shown, it is not given here.

This experiment concerns myelin reactive T cells in PBMCs. As to the kind of experiment: EAA with positivity by Variance Evaluation Method or CPM Variance Method (clinical trials). Format: cell-based, human. Conditions: clinical trial population, RR-MS or CIS subjects. From the text: The predetermined value may also be calculated using a Variance Evaluation Method as follows: • 1. EAAs may be run on a given patient population (minimum of 120 assays from 120 unique subjects) • 2. A “negative population” may be created by averaging all SI values<2.5 • 3. The Standard Deviation (SD) may be calculated for each peptide • 4. The following for each peptide may be then be calculated: • a. Average+1SD • b. Average+2SD • c. Average+3SD • 5. The following SIs may be considered above the predetermined value: • a. SI greater than or equal to the average+3SD • b. Any SI greater than or equal to 2.5
The predetermined value may also be evaluated using a Counts per Minute (CPM) Variance Method. This algorithm may set a comprehensive cutoff for all peptides within a given assay. It may be calculated as follows: • 1. EAAs may be run and the CPM for all control (media only, no antigen) wells averaged. • 2. The SD for CPM of the control wells may then be calculated. • 3. The following may then be calculated for the control wells: • a. Average+1SD • b. Average+2SD • c. Average+3SD • 4. Any peptide with an average CPM greater than or equal to the average+3SD of the control wells may be considered above the predetermined value.
Any peptide, either analyzed in an individual well or as averaged over wells run in triplicate, with an SI≧2.5, an SI≧average+3SD by the Variance Evaluation Method, or an SI≧average+3SD by the CPM variance method may be considered above the predetermined value, which may indicate a T cell(s) positive for reactivity to a peptide.
The peptides of Example 3 have been tested in 429 EAAs in clinical trials as follows. […] Pre-Vaccine EAAs have 158 positive out of 387 assays (40.8%), with Relapse Remitting MS patients (RRMS) showing 150 positive of 368 assays (40.8%), and Clinically Isolated Syndrome (CIS) patients showing 8 positive of 19 assays (42.1%).
Over the course of 6 months a study was conducted with 120 subjects meeting the criteria for the clinical trial.
The above mentioned population of subjects was evaluated by EAA using the Variance Evaluation Method and CPM Variance Method as described above, and deemed eligible for vaccine production. Of the 120 attempts to manufacture vaccine, there were 2 shipping failures (blood was not received within our stated criteria), 1 culture was lost to contamination and 5 samples arrived with low cell volume/yield. Of the remaining 112 subjects, vaccine was successfully generated in 89 subjects, with 22 still in production (98.9% of eligible samples, 92.5% of all samples completed). From this, a positive EAA was deemed predictive of the ability to manufacture a vaccine to therapeutic dose by methods disclosed herein.
Turning to “PLPm25: mix of PLP 49 and PLP 50 (chain 1 TSASIGSLCADARMYG; chain 2 IGSLCADARMYGVLPW)”, the “# of Subjects (frequency of identification)” value (“# of Subjects” for short) turned out to be 3 and the “% of Subjects (frequency of identification)” value (shortened to “% of Subjects”) is given as 2.5%.

For “PLPm32: mix of PLP 63 and PLP 64 (chain 1 ATLVSLLTFMIAATYN; chain 2 SLLTFMIAATYNFAVL)”, the “# of Subjects” value was determined as 12 and the “% of Subjects” value worked out at 10.1%.

In the case of “PLPm12: mix of PLP 23 and PLP 24 (chain 1 EGFYTTGAVRQIFGDY; chain 2 TTGAVRQIFGDYKTTI)”, the “# of Subjects” value is listed as 1 and the “% of Subjects” value is 0.8%.

Regarding “MOGm21: mix of MOG 41 and MOG 42 (chain 1 IENLHRTFDPHFLRVP; chain 2 HRTFDPHFLRVPCWKI)”, the “# of Subjects” value was determined as 40 and the “% of Subjects” value is recorded as 33.6%.

Turning to “PLPm6: mix of PLP 11 and PLP 12 (chain 1 TGTEKLIETYFSKNYQ; chain 2 KLIETYFSKNYQDYEY)”, the “# of Subjects” value was 4 and the “% of Subjects” value turned out to be 3.4%.

For the substance “MOGm4: mix of MOG 7 and MOG 8 (chain 1 RISPGKNATGMEVGWY; chain 2 GKNATXMEVGWYRPPF; X not resolved here; also: mixture of MOG 7 and MOG 8)”, the “# of Subjects” value came out at 3 and the “% of Subjects” value came out at 2.5%.

In the case of “PLPm13: mix of PLP 25 and PLP 26 (chain 1 VRQIFGDYKTTICGKG; chain 2 FGDYKTTICGKGLSAT)”, the “# of Subjects” value was 3 and the “% of Subjects” value was 2.5%.

With “MOGm5: mix of MOG 9 and MOG 10 (chain 1 TGMEVGWYRPPFSRVV; chain 2 VGWYRPPFSRVVHLYR)”, the “# of Subjects” value was 8 and the “% of Subjects” value stood at 6.7%.

In the case of “PLPm4: mix of PLP 7 and PLP 8 (chain 1 CFFGVALFCGCGHEAL; chain 2 VALFCGCGHEALTGTE)”, the “# of Subjects” value came out at 26 and the “% of Subjects” value was 21.8%.

On to “MOGm19: mix of MOG 37 and MOG 38 (chain 1 VFLCLQYRLRGKLRAE; chain 2 LQYRLRGKLRAEIENL)”, for which the “# of Subjects” value turned out to be 6 and the “% of Subjects” value was 5.0%.

For the substance “PLPm19: mix of PLP 37 and PLP 38 (chain 1 WLGHPDKFVGITYALT; chain 2 PDKFVGITYALTVVWL)”, the “# of Subjects” value stood at 11 and the “% of Subjects” value came to 9.2%.

Turning to “MOGm24: mix of MOG 47 and MOG 48 (chain 1 IVPVLGPLVALIICYN; chain 2 LGPLVALIICYNWLHR)”, the “# of Subjects” value worked out at 15 and the “% of Subjects” value came out at 12.6%.

Consider “MOGm23: mix of MOG 45 and MOG 46 (chain 1 CWKITLFVIVPVLGPL; chain 2 TLFVIVPVLGPLVALI)”, for which the “# of Subjects” value came out at 20 and the “% of Subjects” value worked out at 16.8%.

In the case of “MOGm3: mix of MOG 5 and MOG 6 (chain 1 GDEVELPCRISPGKNA; chain 2 ELPCRISPGKNATGME)”, the “# of Subjects” value worked out at 4 and the “% of Subjects” value stood at 3.4%.

“PLPm11: mix of PLP 21 and PLP 22 (chain 1 LYGALLLAEGFYTTGA; chain 2 LLLAEGFYTTGAVRQI)”: the “# of Subjects” value turned out to be 4 and the “% of Subjects” value is 3.4%.

As to “PLPm24: mix of PLP 47 and PLP 48 (chain 1 QSIAFPSKTSASIGSL; chain 2 FPSKTSASIGSLCADA)”, the “# of Subjects” value is 7 and the “% of Subjects” value turned out to be 5.9%.
